Twelve compounds from ChEMBL document CHEMBL1201862, “PubChem BioAssay data set” (2004) can be followed below.

Some test systems named below: RXF 393; OVCAR-4; HT-29; HCT-116; A498; CCRF-CEM; HCT-15; SK-MEL-28; SK-OV-3; SN12C; K562; UO-31; EKVX; NCI-H226; NCI-H522; ACHN; SW-620; LOX IMVI; NCI/ADR-RES.
Assay in all cases: DTP human tumour cell line panel, 48 h

Broadly, the GI50 is the concentration giving 50% growth inhibition.

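Dose response: 5 concentrations. Exposure: 48 h. Format: 96-well plates. Endpoint: linear interpolation; highest concentration if not reached. GI50: concentration for 50% inhibition of growth.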 Activity calls are given as the source filed them. Cut-off read from the data, not from the text of the source: active = GI50 up to about 1.1 µM and inactive = higher.

`COc1ccc([C@H]2CC(=O)NCCCCN2)cc1`: the GI50 in the assay with RXF 393, with OVCAR-4, in the assay with HT-29, in the assay on HCT-116, with A498 and with CCRF-CEM was > 100 µM (inactive) each time. For the same compound, the GI50 is > 100 µM in the assay on HCT-15; > 100 µM (inactive) in the assay on SK-MEL-28; > 100 µM (inactive) with SK-OV-3; > 100 µM (inactive) with SN12C; > 100 µM (inactive) in the assay on K562; > 100 µM (inactive) with UO-31. Also, the GI50 in the assay on EKVX, in the assay on NCI-H226, with NCI-H522 and with ACHN was > 100 µM (inactive) in each case.

In the case of `CCN(CC)CCn1c2ccccc2c(=O)c2c(OC)ccc(OC)c21`, the GI50 in the assay with RXF 393 was 32.4 µM (inactive); in the assay with SW-620, 6.59 µM (inactive); with OVCAR-4 it was > 100 µM (inactive); with HT-29 it was 46.9 µM (inactive); with HCT-116, 37.9 µM (inactive); in the assay with A498, 97.5 µM (inactive). The GI50 in the assay with CCRF-CEM is 46.6 µM (inactive); with LOX IMVI, 36.5 µM (inactive); with HCT-15, 57.5 µM; in the assay on SK-OV-3, > 10 µM (inactive); with SN12C it was 52.4 µM (inactive); in the assay on K562 it was 35.3 µM (inactive). Further, the GI50 was 43.9 µM (inactive) in the assay on UO-31; > 100 µM (inactive) in the assay with EKVX; 60.3 µM (inactive) in the assay on NCI-H226; > 96.4 µM (inactive) with NCI-H522; 47.9 µM (inactive) with ACHN.

As to `CC(=O)OCC1=CC2CCC3C(C)(CCC[C@]3(C)COC(C)=O)C23CC[C@H]1C3` (stereo partly drawn), the GI50 with RXF 393 is 46.5 µM (inactive); in the assay on SW-620, 56.6 µM (inactive); in the assay on OVCAR-4, 30.1 µM (inactive); in the assay with HT-29, 35.8 µM (inactive); with HCT-116, 38.8 µM (inactive); with A498, > 100 µM (inactive). Further, the GI50 in the assay with CCRF-CEM was 27.9 µM (inactive); in the assay with LOX IMVI it was 25 µM (inactive); in the assay on HCT-15, > 100 µM; with SK-MEL-28 it was > 100 µM (inactive); with SK-OV-3, 64.7 µM (inactive); in the assay with SN12C it was 45.2 µM (inactive). The GI50 with K562 is 27.2 µM (inactive); in the assay with UO-31 it was 53.7 µM (inactive); with EKVX it was 83 µM (inactive); in the assay on NCI-H226 it was 68.1 µM (inactive); in the assay with NCI-H522, 18.8 µM (inactive); in the assay on ACHN it was 73.1 µM (inactive).

As for `CCCCCCCCCCCCn1[nH]c(C)c(C(=S)SCCCCCCCC)c1=O`, the GI50 in the assay with RXF 393 is 37.3 µM (inactive); with SW-620, 35.2 µM (inactive); in the assay with OVCAR-4, 95.5 µM (inactive); in the assay with HT-29 it was 76.2 µM (inactive); in the assay with HCT-116, 29.6 µM (inactive); in the assay with A498, > 100 µM (inactive). In addition, the GI50 in the assay with CCRF-CEM is 28.1 µM (inactive); with LOX IMVI, 48.8 µM (inactive); with HCT-15, 21 µM; with SK-MEL-28, > 100 µM (inactive); with SK-OV-3, > 93.1 µM (inactive); in the assay on SN12C it was 86.3 µM (inactive). The GI50 in the assay on K562 is 40.3 µM (inactive); with UO-31, 60.3 µM (inactive); in the assay on EKVX, 43.9 µM (inactive); with NCI-H226, 23.4 µM (inactive); with NCI-H522, 31.9 µM (inactive); with ACHN, 37.6 µM (inactive).

On to `CCC(CC)n1c(C)nc2c1C(=O)c1ccccc1C2=O`, for which the GI50 in the assay with RXF 393 was 35.2 µM (inactive); in the assay on SW-620 it was 52.2 µM (inactive); with OVCAR-4 it was 40.7 µM (inactive); in the assay on HT-29, 33.2 µM (inactive); in the assay with HCT-116, 19.3 µM (inactive); in the assay with CCRF-CEM it was 42.6 µM (inactive). The GI50 was 19.5 µM (inactive) in the assay with LOX IMVI; 9.18 µM in the assay on HCT-15; 49.3 µM (inactive) in the assay with SK-MEL-28; > 100 µM (inactive) in the assay with SK-OV-3; 46.3 µM (inactive) in the assay with SN12C; 21.1 µM (inactive) in the assay on K562. Further, the GI50 was 19.5 µM (inactive) in the assay with UO-31; 70.5 µM (inactive) in the assay with EKVX; 72.8 µM (inactive) in the assay on NCI-H226; 48.1 µM (inactive) with NCI-H522; 41.4 µM (inactive) in the assay on ACHN.

Take `COC(=O)C(C(=O)C(=O)Nc1nc2ccc([N+](=O)[O-])cc2s1)c1nc2ccc(Cl)cc2nc1O` (stereo not drawn): the GI50 was > 100 µM (inactive) in the assay on RXF 393; > 100 µM (inactive) in the assay on SW-620; > 100 µM (inactive) with OVCAR-4; > 100 µM (inactive) in the assay with HT-29; > 100 µM (inactive) in the assay on HCT-116; 21.2 µM (inactive) with A498. The GI50 with CCRF-CEM was > 100 µM (inactive); with LOX IMVI, > 100 µM (inactive); in the assay with HCT-15, > 100 µM; in the assay with SK-MEL-28 it was > 100 µM (inactive); with SK-OV-3 it was 35.2 µM (inactive); in the assay on SN12C, > 100 µM (inactive). In addition, the GI50 in the assay with K562, in the assay on UO-31, with EKVX, in the assay with NCI-H226, with NCI-H522 and in the assay on ACHN was > 100 µM (inactive) throughout.

In the case of `COc1cc(OC)c2c(C)cc(=O)oc2c1`, the GI50 in the assay with NCI/ADR-RES is 63.8 µM (inactive); in the assay on SW-620 it was 54.5 µM (inactive); in the assay with OVCAR-4, > 100 µM (inactive); in the assay with HT-29, 43.4 µM (inactive); with HCT-116, 43.1 µM (inactive); in the assay with A498 it was 20.6 µM (inactive). The GI50 in the assay with CCRF-CEM is > 100 µM (inactive); in the assay on LOX IMVI it was 47.1 µM (inactive); in the assay with HCT-15, 56.5 µM; in the assay with SK-MEL-28, > 100 µM (inactive); with SK-OV-3 it was > 100 µM (inactive); in the assay with SN12C, 72.6 µM (inactive). Also, the GI50 in the assay with K562 is 45 µM (inactive); in the assay on UO-31 it was 20.3 µM (inactive); with EKVX, 50.5 µM (inactive); in the assay with NCI-H226, 41.5 µM (inactive); in the assay on ACHN, 36.7 µM (inactive).

In the case of `O=C1CCC(=O)c2c1c(O)c1ccncc1c2O`, the GI50 in the assay with RXF 393 was 21 µM (inactive); in the assay with SW-620, 16.4 µM (inactive); with OVCAR-4, 12.9 µM (inactive); in the assay with HT-29, 6.62 µM (inactive); in the assay on HCT-116 it was 14.7 µM (inactive); in the assay with CCRF-CEM it was 14.8 µM (inactive). Moreover, the GI50 with LOX IMVI was 13.8 µM (inactive); with HCT-15, 12.9 µM; in the assay on SK-MEL-28, 20.5 µM (inactive); in the assay with SK-OV-3, 36.5 µM (inactive); with SN12C it was 17.5 µM (inactive); with K562, 18.8 µM (inactive). The GI50 with UO-31 is 15.5 µM (inactive); with EKVX, 27.8 µM (inactive); in the assay with NCI-H226 it was 20.6 µM (inactive); with NCI-H522 it was 12 µM (inactive); in the assay with ACHN, 15.3 µM (inactive).

As to `COC(=O)C1=NC(=S)NC(c2ccccc2)C1c1nc2ccccc2o1` (stereo not drawn), the GI50 with RXF 393 was 20.1 µM (inactive); in the assay on SW-620, > 50 µM (inactive); in the assay with OVCAR-4 it was > 50 µM (inactive); with HT-29 it was > 50 µM (inactive); with HCT-116, > 50 µM (inactive); in the assay on A498, > 50 µM (inactive). The GI50 in the assay with CCRF-CEM was > 50 µM (inactive); with LOX IMVI, > 50 µM (inactive); in the assay with HCT-15 it was > 50 µM; with SK-OV-3, > 50 µM (inactive); with SN12C, > 50 µM (inactive); in the assay with K562, > 50 µM (inactive). Moreover, the GI50 in the assay with UO-31, in the assay on EKVX, in the assay with NCI-H226, with NCI-H522 and with ACHN was > 50 µM (inactive) each time.

With `N#C/C(=C\c1ccc2ccccc2c1)c1ccccc1`, the GI50 with RXF 393 is 38.8 µM (inactive); in the assay with SW-620 it was 28.8 µM (inactive); with OVCAR-4, 29.6 µM (inactive); in the assay with HT-29, 26.7 µM (inactive); with HCT-116, 30.3 µM (inactive); with A498, 23.6 µM (inactive). Besides, the GI50 was 32.5 µM (inactive) in the assay with CCRF-CEM; 53.3 µM (inactive) with LOX IMVI; 23.6 µM with HCT-15; 45.4 µM (inactive) in the assay on SK-MEL-28; 26.3 µM (inactive) with SK-OV-3; 39.8 µM (inactive) in the assay on SN12C. The GI50 was 25.5 µM (inactive) in the assay on UO-31, 53.2 µM (inactive) in the assay on NCI-H226, 12 µM (inactive) in the assay with NCI-H522 and 18.7 µM (inactive) with ACHN.

In the case of `Cc1ccc(/N=N/c2ccc(N(CCC#N)CCC#N)cc2C)c(Br)c1`, the GI50 is 9.27 µM (inactive) with RXF 393; 21.9 µM (inactive) in the assay on SW-620; 20.4 µM (inactive) in the assay with OVCAR-4; 3.53 µM (inactive) with HT-29; 51.9 µM (inactive) with A498; 5.85 µM (inactive) with CCRF-CEM. The GI50 in the assay on LOX IMVI was 3.33 µM (inactive); in the assay with HCT-15, 2.78 µM; with SK-MEL-28, 51.3 µM (inactive); in the assay on SK-OV-3, 10.3 µM (inactive); with SN12C, 19.4 µM (inactive); with K562 it was 3.13 µM (inactive). Also, the GI50 in the assay on UO-31 was 16.9 µM (inactive); in the assay with EKVX it was 41 µM (inactive); with NCI-H226 it was 17.2 µM (inactive); in the assay on NCI-H522, 18.5 µM (inactive); with ACHN, 15 µM (inactive).

Turning to `CC(C)(C)OC(=O)N[C@H]1CCN(C2CCCCC2)C1=O`, the GI50 was 40.6 µM (inactive) in the assay with NCI/ADR-RES; > 100 µM (inactive) in the assay on SW-620; > 100 µM (inactive) in the assay with HCT-116; > 100 µM (inactive) in the assay on A498; > 100 µM (inactive) with CCRF-CEM; > 100 µM (inactive) in the assay on LOX IMVI. In addition, the 50% growth inhibitory concentration (GI50) in the assay on HCT-15 was > 100 µM; with SK-MEL-28, > 100 µM (inactive); in the assay with SK-OV-3, > 100 µM (inactive); with SN12C it was > 100 µM (inactive); in the assay on K562 it was > 100 µM (inactive); in the assay on UO-31 it was > 100 µM (inactive). In addition, the GI50 in the assay with EKVX, with NCI-H226 and in the assay with ACHN was > 100 µM (inactive) in each case.
